# Conditions: for aqueous solubility: pH 6.8
Compound,MDR1-MDCK efflux ratio,"intrinsic clearance, human liver microsomes","intrinsic clearance, rat liver microsomes",aqueous solubility,"fraction unbound, human plasma","fraction unbound, rat plasma"
CC(C)c1cc(C(=O)N2Cc3ccc(CN4CCN(C)CC4)cc3C2)c(O)cc1O,24.3,≤ 4.74 mL/min/kg,50.4 mL/min/kg,44.6 µg/mL,,
O=C(NCC(F)(F)F)c1ccncc1,,,,30.7 µg/mL,,
CCCCNc1nc2c(cc1C#N)CCC2,,226 mL/min/kg,2310 mL/min/kg,,,
N#Cc1ccc(Cn2cncn2)c(F)c1,0.697,≤ 4.74 mL/min/kg,≤ 10.7 mL/min/kg,26.5 µg/mL,,
Clc1ccc2oc(/C=C/c3csnn3)nc2c1,,,,0.19 µg/mL,,
CN(C)C1CN(c2nc(-c3cnccn3)nc3sc4c(c23)CCCC4)C1,1.17,92.5 mL/min/kg,2720 mL/min/kg,37 µg/mL,,
Cc1ccsc1-c1nc(CN(C)CCc2cn[nH]c2)c(C)o1,,185 mL/min/kg,1210 mL/min/kg,55.7 µg/mL,,
CC(C)(C)NC(=O)c1cnc(-c2ccc(Cl)s2)s1,0.494,41.6 mL/min/kg,167 mL/min/kg,1.1 µg/mL,,
Cn1nccc1C(=O)NCCc1cc2nc(-c3cccs3)ccn2n1,,67.5 mL/min/kg,565 mL/min/kg,,,
COc1cc2c(cc1OC)CC(=O)N(CCCN(C)C[C@H]1Cc3cc(OC)c(OC)cc31)CC2,73.8,36.7 mL/min/kg,163 mL/min/kg,65.8 µg/mL,0.538,0.412
OC[C@@H](c1ccccc1)n1cc(CCc2ccccc2)nn1,0.889,24.7 mL/min/kg,694 mL/min/kg,14 µg/mL,,
COc1ccc2nc(C)c(C(=O)Nc3ccccc3N3CCCC3)cc2c1,0.484,182 mL/min/kg,985 mL/min/kg,8.4 µg/mL,,
COc1ccc2c(c1)CCCN(C(=O)NCCc1ccccn1)C2,,174 mL/min/kg,1400 mL/min/kg,,,
O=C(O)c1cnn(-c2nc3cc(Cl)c(OC(F)(F)F)cc3[nH]2)c1,1.05,≤ 4.74 mL/min/kg,≤ 10.7 mL/min/kg,,,
Cc1ccc(OCCCC(=O)N2CCC(n3c(=O)[nH]c4ccccc43)CC2)cc1,,123 mL/min/kg,1540 mL/min/kg,,,
Cc1cc(C(=O)O)c2ccc(F)cc2n1,,,,24.8 µg/mL,,
Cc1cc(Nc2cnccn2)cc(C2CCCN(CC(=O)N3CCCC3)C2)n1 (stereo not drawn),26.7,5.43 mL/min/kg,98.6 mL/min/kg,,0.439,0.429
Cc1nc(O)cc(C2CCN(c3cnccn3)CC2)n1,42,≤ 4.74 mL/min/kg,20.1 mL/min/kg,50.7 µg/mL,,
CC(C)c1ccccc1OC(=O)NCCc1ccc2ccccc2c1,0.492,,,0.71 µg/mL,,
N#Cc1cccnc1NCCc1ccc(F)cc1,0.519,179 mL/min/kg,1150 mL/min/kg,2.69 µg/mL,,

Compound,MDR1-MDCK efflux ratio,"intrinsic clearance, human liver microsomes","intrinsic clearance, rat liver microsomes",aqueous solubility,"fraction unbound, human plasma","fraction unbound, rat plasma"
CN1C(=O)[C@H](Cc2ccccc2)N[C@@H]1C(C)(C)C,0.771,53.9 mL/min/kg,747 mL/min/kg,30.3 µg/mL,,
CN(Cc1nc(N)c2ccccc2n1)Cc1ccc(F)cc1F,3.49,54 mL/min/kg,1970 mL/min/kg,43.1 µg/mL,,
CN1CC(=O)N(CCCC(=O)Nc2cccc(C#Cc3cccs3)c2)C1=O,4.28,19.7 mL/min/kg,738 mL/min/kg,43.2 µg/mL,,
O=C(c1ccc(NS(=O)(=O)c2cccc3cnccc23)cc1)N1CCCC1,79.1,26.7 mL/min/kg,562 mL/min/kg,,,
COc1ccc2c(c1)C(=O)N(c1ccccc1OC)C(=O)C2,,,,40.3 µg/mL,,
Cc1nc(COc2ccc(F)cc2)sc1C(=O)N1CCC(C)CC1,0.543,90.2 mL/min/kg,2510 mL/min/kg,47.4 µg/mL,,
COCCc1nc(-c2ccccc2-c2ccccc2)n(CCO)n1,15.9,24.5 mL/min/kg,182 mL/min/kg,26.4 µg/mL,,
O=c1c2cc(OCc3ccc(Cl)cc3)ccc2nc2n1CCCCC2,0.969,,,0.38 µg/mL,,
O=C1CN(C(=O)c2cccc(Oc3cccc(C(F)(F)F)c3)c2)CCN1,8.39,5.25 mL/min/kg,66.1 mL/min/kg,39 µg/mL,,
Cc1nn(-c2ccc(C(=O)O)cc2C#Cc2ccccc2)c(C)c1C,3.82,≤ 4.74 mL/min/kg,595 mL/min/kg,46.4 µg/mL,,
Cc1cc(C)nc(-n2nc(C)c(CC(=O)NC3CCCCCC3)c2C)n1,33.3,43.9 mL/min/kg,832 mL/min/kg,54.6 µg/mL,,
COc1cccc2cc(C(N)=S)/c(=N/Nc3ccccc3)oc12,0.496,,,0.45 µg/mL,,
CCN1CCN(S(=O)(=O)Cc2ccc(Cl)c(Cl)c2)CC1,0.41,82.8 mL/min/kg,1440 mL/min/kg,25.7 µg/mL,0.177,0.118
O=C(NC[C@]1(O)CCN(Cc2cccs2)C[C@H]1O)c1c[nH]cn1,,≤ 4.74 mL/min/kg,≤ 10.7 mL/min/kg,,,
CCc1cc(NC(=O)Cc2c(C)nc3nc(SC)nn3c2C)[nH]n1,,,,15.8 µg/mL,,
Cn1c(NC(=O)c2ccn(COc3ccccc3)n2)nc2ccccc21,,,,5.8 µg/mL,,
CN(C)CCOc1cc(-c2cn[nH]c2)ccc1NC(=O)C1COc2ccccc2O1 (stereo not drawn),32.1,19.9 mL/min/kg,691 mL/min/kg,,,
CCOc1cc(CN2CCc3c(N)nc(N4CCCC4)nc3C2)ccc1OC,16.6,26.6 mL/min/kg,280 mL/min/kg,,,
Cc1nc(C2CCN(Cc3ccc(C(F)(F)F)cc3)CC2)n[nH]1,,6 mL/min/kg,14.1 mL/min/kg,,,
N#Cc1ccc(-c2cccc(CN)c2)s1,,356 mL/min/kg,557 mL/min/kg,,,

Compound,MDR1-MDCK efflux ratio,"intrinsic clearance, human liver microsomes","intrinsic clearance, rat liver microsomes",aqueous solubility,"fraction unbound, human plasma","fraction unbound, rat plasma"
CCN(CC(N)=O)CC(=O)N1c2ccccc2CCc2ccccc21,28.9,40.9 mL/min/kg,674 mL/min/kg,,,
CCc1noc(-c2ccc(CCN)cc2)n1,0.479,394 mL/min/kg,54.5 mL/min/kg,44.1 µg/mL,,
CCN1CCc2ncnc(N(C)Cc3ccc4c(c3)OCCO4)c2C1,0.787,114 mL/min/kg,448 mL/min/kg,38.9 µg/mL,,
COCc1ncc(CN2CCC(Oc3ccccc3C)CC2)cn1,,23.1 mL/min/kg,180 mL/min/kg,,,
Cc1nc(-c2ccccc2)ccc1C(=O)N1CCCS1(=O)=O,0.766,≤ 4.74 mL/min/kg,96 mL/min/kg,78.5 µg/mL,,
COc1cc(CN2CCC(c3ccnc(C)n3)CC2)ccc1F,0.674,11.2 mL/min/kg,73.6 mL/min/kg,71 µg/mL,,
Cc1[nH]nc(CCC(=O)NCCCOC2CCCC2)c1C,14.4,33.6 mL/min/kg,2410 mL/min/kg,,,
CCCCC1=NC2(CCCC2)C(=O)N1Cc1ccc(-c2ccccc2-c2nn[nH]n2)cc1,148,10.7 mL/min/kg,151 mL/min/kg,37 µg/mL,,
COCCS(=O)(=O)N1CCC2(Cc3ccccc3C2)C1,0.583,19.2 mL/min/kg,893 mL/min/kg,54 µg/mL,,
Cc1cccc(C)c1OCC(=O)N(C)[C@@H]1CC[C@@H](N2CCOCC2)[C@@H]1O,,6.43 mL/min/kg,104 mL/min/kg,,,
Cc1nc(C#N)c(C#N)n1Cc1csc(-c2cccs2)n1,,88.8 mL/min/kg,1710 mL/min/kg,32.2 µg/mL,,
NCc1nnc(CCc2ccccc2)o1,,≤ 4.74 mL/min/kg,≤ 10.7 mL/min/kg,,,
Cc1nn(C)c(C)c1NC(=O)CN1CCN(c2nccs2)CC1,18.9,≤ 4.74 mL/min/kg,14.3 mL/min/kg,58.2 µg/mL,,
Nc1ccc2[nH]c(CCc3ccccc3)nc2c1,1.27,≤ 4.74 mL/min/kg,28.8 mL/min/kg,36.3 µg/mL,,
CC(=O)N1CCCN(Cc2c(C)nn(C)c2Cl)CC1,3.19,11.6 mL/min/kg,43.7 mL/min/kg,41.1 µg/mL,,
CC(C)(C)OC(=O)NCc1ccc(C(=N)NC(=O)OCc2ccccc2)cc1,2.23,84.3 mL/min/kg,1300 mL/min/kg,2.59 µg/mL,,
O=C(CN1CCCC(c2ccc3cn[nH]c3n2)C1)N1CCCC1 (stereo not drawn),30.2,9.13 mL/min/kg,337 mL/min/kg,38 µg/mL,,
O=C(c1ccccc1-c1ncc(-c2ccccc2F)o1)N1CCC1,0.659,35.1 mL/min/kg,456 mL/min/kg,43.6 µg/mL,,
Cc1ccc(OCN2CCCCC2=O)nc1,2.63,5.26 mL/min/kg,≤ 10.7 mL/min/kg,,,

# From the Biogen ADME set (Fang et al. 2023)
